Measured values reported in patent US12565522B2, “Micropeptide HMMW and application thereof” (NANJING ANJI BIOTECHNOLOGY CO., LTD., priority 2019, dated 2026).
No end group written: not given here.

Legend:
Type in all cases: cell-based, human
Settings in all cases: 24 h
[1] = tested on: A431 cells of skin cancer; experiment: Matrigel transwell invasion test
Method in brief: (§1)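 Read-out: invasion inhibition rate from crystal violet-stained invaded cells counted in four microscope fields, test vs 0 μM control. Cells at 1×10^5 cells/mL in blank medium on Matrigel-coated inserts, peptide 1, 4 or 16 μM, 10% FBS chemoattractant, 24 h, 37 °C, 5% CO2; n=3, mean±SD.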

[2] = tested on: MGC803 cells of stomach cancer; experiment: Matrigel transwell invasion test
Method in brief: as §1

[3] = tested on: A549 cells of lung cancer; experiment: Matrigel transwell invasion test
Method in brief: as §1

[4] = tested on: MDA-MB-231 cells of breast cancer; experiment: Matrigel transwell invasion test
Method in brief: as §1

[5] = tested on: SCC4 cells of head and neck cancer; experiment: Matrigel transwell invasion test
Method in brief: as §1

[6] = tested on: TE13 cells of esophageal squamous cell carcinoma; experiment: Matrigel transwell invasion test
Method in brief: as §1

[7] = tested on: SW579 cells of thyroid cancer; experiment: Matrigel transwell invasion test
Method in brief: as §1

[8] = tested on: UOK262 cells of kidney cancer; experiment: Matrigel transwell invasion test
Method in brief: as §1

[9] = tested on: A431 cells of skin cancer; experiment: transwell migration test
[10] = tested on: MGC803 cells of stomach cancer; experiment: transwell migration test
[11] = tested on: A549 cells of lung cancer; experiment: transwell migration test
[12] = tested on: MDA-MB-231 cells of breast cancer; experiment: transwell migration test
[13] = tested on: SCC4 cells of head and neck cancer; experiment: transwell migration test
[14] = tested on: TE13 cells of esophageal squamous cell carcinoma; experiment: transwell migration test
[15] = tested on: SW579 cells of thyroid cancer; experiment: transwell migration test
[16] = tested on: UOK262 cells of kidney cancer; experiment: transwell migration test

Substance: MGSTYNKRHSPRRSSVEAKMQSTSCSVRKSSTVTAWPAVVLLLSWGQRRGG-OH [HMMW-III]
- invasion inhibition rate ([1]; dose 1 μM): 33.70%
- invasion inhibition rate ([1]; dose 4 μM): 53.21%
- invasion inhibition rate ([1]; dose 16 μM): 67.33%
- invasion inhibition rate ([2]; dose 1 μM): 25.11%
- invasion inhibition rate ([2]; dose 4 μM): 53.38%
- invasion inhibition rate ([2]; dose 16 μM): 67.61%
- invasion inhibition rate ([3]; dose 1 μM): 32.13%
- invasion inhibition rate ([3]; dose 4 μM): 52.30%
- invasion inhibition rate ([3]; dose 16 μM): 66.09%
- invasion inhibition rate ([4]; dose 1 μM): 28.91%
- invasion inhibition rate ([4]; dose 4 μM): 49.82%
- invasion inhibition rate ([4]; dose 16 μM): 68.36%
- invasion inhibition rate ([5]; dose 1 μM): 22.75%
- invasion inhibition rate ([5]; dose 4 μM): 48.24%
- invasion inhibition rate ([5]; dose 16 μM): 75.84%
- invasion inhibition rate ([6]; dose 1 μM): 21.23%
- invasion inhibition rate ([6]; dose 4 μM): 41.81%
- invasion inhibition rate ([6]; dose 16 μM): 63.31%
- invasion inhibition rate ([7]; dose 1 μM): 18.63%
- invasion inhibition rate ([7]; dose 4 μM): 42.76%
- invasion inhibition rate ([7]; dose 16 μM): 63.89%
- invasion inhibition rate ([8]; dose 1 μM): 34.37%
- invasion inhibition rate ([8]; dose 4 μM): 55.15%
- invasion inhibition rate ([8]; dose 16 μM): 67.23%
- migration inhibition rate ([9]; dose 1 μM): 32.13%
- migration inhibition rate ([9]; dose 4 μM): 54.27%
- migration inhibition rate ([9]; dose 16 μM): 72.21%
- migration inhibition rate ([10]; dose 1 μM): 25.61%
- migration inhibition rate ([10]; dose 4 μM): 52.45%
- migration inhibition rate ([10]; dose 16 μM): 74.80%
- migration inhibition rate ([11]; dose 1 μM): 33.01%
- migration inhibition rate ([11]; dose 4 μM): 54.93%
- migration inhibition rate ([11]; dose 16 μM): 72.42%
- migration inhibition rate ([12]; dose 1 μM): 27.06%
- migration inhibition rate ([12]; dose 4 μM): 51.34%
- migration inhibition rate ([12]; dose 16 μM): 74.38%
- migration inhibition rate ([13]; dose 1 μM): 16.81%
- migration inhibition rate ([13]; dose 4 μM): 43.94%
- migration inhibition rate ([13]; dose 16 μM): 74.01%
- migration inhibition rate ([14]; dose 1 μM): 22.76%
- migration inhibition rate ([14]; dose 4 μM): 41.29%
- migration inhibition rate ([14]; dose 16 μM): 65.32%
- migration inhibition rate ([15]; dose 1 μM): 18.83%
- migration inhibition rate ([15]; dose 4 μM): 50.04%
- migration inhibition rate ([15]; dose 16 μM): 71.92%
- migration inhibition rate ([16]; dose 1 μM): 16.39%
- migration inhibition rate ([16]; dose 4 μM): 41.38%
- migration inhibition rate ([16]; dose 16 μM): 70.47%

Substance: MERAGVPGFSPRRSSVEAKMQSTSCSVRKSSTVTAWPAVVLLLHTSKDDEE-OH [HMMW-II]
- invasion inhibition rate ([1]; dose 1 μM): 31.71%
- invasion inhibition rate ([1]; dose 4 μM): 53.41%
- invasion inhibition rate ([1]; dose 16 μM): 68.25%
- invasion inhibition rate ([2]; dose 1 μM): 27.52%
- invasion inhibition rate ([2]; dose 4 μM): 51.04%
- invasion inhibition rate ([2]; dose 16 μM): 66.51%
- invasion inhibition rate ([3]; dose 1 μM): 33.25%
- invasion inhibition rate ([3]; dose 4 μM): 55.12%
- invasion inhibition rate ([3]; dose 16 μM): 65.09%
- invasion inhibition rate ([4]; dose 1 μM): 25.93%
- invasion inhibition rate ([4]; dose 4 μM): 47.75%
- invasion inhibition rate ([4]; dose 16 μM): 71.52%
- invasion inhibition rate ([5]; dose 1 μM): 21.72%
- invasion inhibition rate ([5]; dose 4 μM): 45.14%
- invasion inhibition rate ([5]; dose 16 μM): 73.80%
- invasion inhibition rate ([6]; dose 1 μM): 21.41%
- invasion inhibition rate ([6]; dose 4 μM): 43.46%
- invasion inhibition rate ([6]; dose 16 μM): 64.56%
- invasion inhibition rate ([7]; dose 1 μM): 22.13%
- invasion inhibition rate ([7]; dose 4 μM): 45.78%
- invasion inhibition rate ([7]; dose 16 μM): 66.73%
- invasion inhibition rate ([8]; dose 1 μM): 34.70%
- invasion inhibition rate ([8]; dose 4 μM): 54.16%
- invasion inhibition rate ([8]; dose 16 μM): 65.64%
- migration inhibition rate ([9]; dose 1 μM): 31.14%
- migration inhibition rate ([9]; dose 4 μM): 53.12%
- migration inhibition rate ([9]; dose 16 μM): 71.12%
- migration inhibition rate ([10]; dose 1 μM): 25.64%
- migration inhibition rate ([10]; dose 4 μM): 52.41%
- migration inhibition rate ([10]; dose 16 μM): 73.82%
- migration inhibition rate ([11]; dose 1 μM): 34.01%
- migration inhibition rate ([11]; dose 4 μM): 52.91%
- migration inhibition rate ([11]; dose 16 μM): 72.36%
- migration inhibition rate ([12]; dose 1 μM): 27.07%
- migration inhibition rate ([12]; dose 4 μM): 51.24%
- migration inhibition rate ([12]; dose 16 μM): 73.18%
- migration inhibition rate ([13]; dose 1 μM): 18.81%
- migration inhibition rate ([13]; dose 4 μM): 43.67%
- migration inhibition rate ([13]; dose 16 μM): 75.04%
- migration inhibition rate ([14]; dose 1 μM): 22.74%
- migration inhibition rate ([14]; dose 4 μM): 40.23%
- migration inhibition rate ([14]; dose 16 μM): 65.31%
- migration inhibition rate ([15]; dose 1 μM): 18.80%
- migration inhibition rate ([15]; dose 4 μM): 50.13%
- migration inhibition rate ([15]; dose 16 μM): 71.92%
- migration inhibition rate ([16]; dose 1 μM): 16.29%
- migration inhibition rate ([16]; dose 4 μM): 41.28%
- migration inhibition rate ([16]; dose 16 μM): 70.43%

Substance: MERAGVPGFSPRRSSVEAKMQSTSCSVRKSSTVTAWPAVVLLLSWGQRDEE-OH [HMMW-VI]
- invasion inhibition rate ([1]; dose 1 μM): 36.83%
- invasion inhibition rate ([1]; dose 4 μM): 57.35%
- invasion inhibition rate ([1]; dose 16 μM): 71.16%
- invasion inhibition rate ([2]; dose 1 μM): 23.42%
- invasion inhibition rate ([2]; dose 4 μM): 54.19%
- invasion inhibition rate ([2]; dose 16 μM): 63.35%
- invasion inhibition rate ([3]; dose 1 μM): 34.15%
- invasion inhibition rate ([3]; dose 4 μM): 56.32%
- invasion inhibition rate ([3]; dose 16 μM): 65.35%
- invasion inhibition rate ([4]; dose 1 μM): 24.83%
- invasion inhibition rate ([4]; dose 4 μM): 46.57%
- invasion inhibition rate ([4]; dose 16 μM): 71.43%
- invasion inhibition rate ([5]; dose 1 μM): 22.83%
- invasion inhibition rate ([5]; dose 4 μM): 47.82%
- invasion inhibition rate ([5]; dose 16 μM): 74.16%
- invasion inhibition rate ([6]; dose 1 μM): 22.25%
- invasion inhibition rate ([6]; dose 4 μM): 42.39%
- invasion inhibition rate ([6]; dose 16 μM): 67.47%
- invasion inhibition rate ([7]; dose 1 μM): 23.29%
- invasion inhibition rate ([7]; dose 4 μM): 46.63%
- invasion inhibition rate ([7]; dose 16 μM): 67.58%
- invasion inhibition rate ([8]; dose 1 μM): 38.15%
- invasion inhibition rate ([8]; dose 4 μM): 58.28%
- invasion inhibition rate ([8]; dose 16 μM): 67.51%
- migration inhibition rate ([9]; dose 1 μM): 33.19%
- migration inhibition rate ([9]; dose 4 μM): 55.17%
- migration inhibition rate ([9]; dose 16 μM): 70.23%
- migration inhibition rate ([10]; dose 1 μM): 26.64%
- migration inhibition rate ([10]; dose 4 μM): 51.45%
- migration inhibition rate ([10]; dose 16 μM): 72.80%
- migration inhibition rate ([11]; dose 1 μM): 32.00%
- migration inhibition rate ([11]; dose 4 μM): 51.90%
- migration inhibition rate ([11]; dose 16 μM): 70.46%
- migration inhibition rate ([12]; dose 1 μM): 27.06%
- migration inhibition rate ([12]; dose 4 μM): 50.34%
- migration inhibition rate ([12]; dose 16 μM): 74.38%
- migration inhibition rate ([13]; dose 1 μM): 16.69%
- migration inhibition rate ([13]; dose 4 μM): 42.81%
- migration inhibition rate ([13]; dose 16 μM): 71.04%
- migration inhibition rate ([14]; dose 1 μM): 21.76%
- migration inhibition rate ([14]; dose 4 μM): 40.21%
- migration inhibition rate ([14]; dose 16 μM): 66.32%
- migration inhibition rate ([15]; dose 1 μM): 19.81%
- migration inhibition rate ([15]; dose 4 μM): 52.03%
- migration inhibition rate ([15]; dose 16 μM): 70.91%
- migration inhibition rate ([16]; dose 1 μM): 17.32%
- migration inhibition rate ([16]; dose 4 μM): 40.38%
- migration inhibition rate ([16]; dose 16 μM): 72.47%
